Test results published in US10343992B2, “1-cyano-pyrrolidine compounds as USP30 inhibitors” (MISSION THERAPEUTICS LIMITED, priority 2015, dated 2019).

Target: USP30 (Homo sapiens (Human), UniProt Q70CQ3)
Assay: USP30 biochemical FP or FI IC50 assay
Conditions: read-out: IC50 range
Outline: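 Human USP30 preincubated 30 min at room temperature with compound (8-point series, 100 µM top final) in Tris pH 7.5, Tween 20, BSA, 5 mM β-mercaptoethanol, in duplicate. FP format: 50 nM TAMRA-peptide–isopeptide-ubiquitin substrate, ex 540/em 590. FI format: 100 nM ubiquitin-rhodamine 110, ex 487/em 535. Both read at 0 and after 2 h at room temperature.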

Sequence of USP30 (Q70CQ3 57-517): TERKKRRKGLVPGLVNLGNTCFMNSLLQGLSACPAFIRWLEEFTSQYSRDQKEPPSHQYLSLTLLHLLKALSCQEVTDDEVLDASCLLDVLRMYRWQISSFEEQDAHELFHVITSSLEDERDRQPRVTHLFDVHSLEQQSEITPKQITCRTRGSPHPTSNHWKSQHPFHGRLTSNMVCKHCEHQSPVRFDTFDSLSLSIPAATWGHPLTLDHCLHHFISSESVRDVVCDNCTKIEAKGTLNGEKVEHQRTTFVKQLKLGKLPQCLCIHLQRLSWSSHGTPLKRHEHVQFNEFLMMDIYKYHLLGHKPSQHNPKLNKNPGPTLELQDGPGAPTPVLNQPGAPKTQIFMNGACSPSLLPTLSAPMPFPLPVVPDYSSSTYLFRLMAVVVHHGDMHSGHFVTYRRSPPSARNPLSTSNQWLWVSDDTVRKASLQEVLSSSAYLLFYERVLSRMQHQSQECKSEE

SMILES | IC50
CCn1cc(-c2ccc3nc(C(=O)N[C@@H]4CCN(C#N)C4)c(F)n3c2)cn1 [Example 169, (R)-N-(1-cyanopyrrolidin-3-yl)-6-(1-ethyl-1H-pyrazol-4-yl)-3-fluoroimidazo[1,2-a]pyridine-2-carboxamide] | 100 to 1000 nM
Cc1nn(C)cc1-c1ccc2nc(C(=O)N[C@@H]3CCN(C#N)C3)c(F)n2c1 [Example 170, (R)-N-(1-cyanopyrrolidin-3-yl)-6-(1,3-dimethyl-1H-pyrazol-4-yl)-3-fluoroimidazo[1,2-a]pyridine-2-carboxamide] | 100 to 1000 nM
N#CN1CC[C@@H](NC(=O)c2ccc(-c3ccn4nccc4n3)cc2F)C1 [Example 172, (R)-N-(1-cyanopyrrolidin-3-yl)-2-fluoro-4-(pyrazolo[1,5-a]pyrimidin-5-yl)benzamide] | < 100 nM
N#CN1CC[C@@H](NC(=O)c2ccc(-c3ccc(F)cc3)cn2)C1 [Example 173, (R)-N-(1-cyanopyrrolidin-3-yl)-5-(4-fluorophenyl)picolinamide] | < 100 nM
Cc1ncc(F)c(-c2ccc(C(=O)N[C@@H]3CCN(C#N)C3)c(F)c2)n1 [Example 182, (R)-N-(1-cyanopyrrolidin-3-yl)-2-fluoro-4-(5-fluoro-2-methylpyrimidin-4-yl)benzamide] | < 100 nM
N#CN1CC[C@@H](NC(=O)c2ccc(-c3ccnc(C(F)(F)F)n3)cc2F)C1 [Example 183, (R)-N-(1-cyanopyrrolidin-3-yl)-2-fluoro-4-(2-(trifluoromethyl)pyrimidin-4-yl)benzamide] | 100 to 1000 nM
Cc1nc2nccc-2c(-c2ccc(C(=O)N[C@@H]3CCN(C#N)C3)c(F)c2)[nH]1 [Example 184, (R)-N-(1-cyanopyrrolidin-3-yl)-2-fluoro-4-(2-methyl-3H-pyrrolo[2,3-d]pyrimidin-4-yl)benzamide] | < 100 nM
N#CN1CC[C@@H](NC(=O)c2ccc(-c3cnc4cnccn34)cc2F)C1 [Example 185, (R)-N-(1-cyanopyrrolidin-3-yl)-2-fluoro-4-(imidazo[1,2-a]pyrazin-3-yl)benzamide] | < 100 nM
N#CN1CC[C@@H](NC(=O)c2ncc(-c3ccn4nccc4n3)cc2F)C1 [Example 186, (R)-N-(1-cyanopyrrolidin-3-yl)-3-fluoro-5-(pyrazolo[1,5-a]pyrimidin-5-yl)picolinamide] | 100 to 1000 nM
COC1(c2ccccc2)CN(C(=O)N[C@@H]2CCN(C#N)C2)C1 [Example 188, (R)-N-(1-cyanopyrrolidin-3-yl)-3-methoxy-3-phenylazetidine-1-carboxamide] | 100 to 1000 nM
N#CN1C[C@H]2CCN(C(=O)N3CC(c4ccccc4)C3)[C@H]2C1 [Example 193, (3aR,6aR)-1-(3-phenylazetidine-1-carbonyl)hexahydropyrrolo[3,4-b]pyrrole-5(1H)-carbonitrile] | 100 to 1000 nM
CN(C(=O)Nc1ccc(-c2cnn(C)c2)cc1)[C@@H]1CCN(C#N)C1 [Example 194, (R)-1-(1-cyanopyrrolidin-3-yl)-1-methyl-3-(4-(1-methyl-1H-pyrazol-4-yl)phenyl)urea] | 100 to 1000 nM
N#CN1C[C@H]2CCN(C(=O)Nc3ccc(Cl)cc3F)[C@H]2C1 [Example 196, (3aR,6aR)-N-(4-chloro-2-fluorophenyl)-5-cyanohexahydropyrrolo[3,4-b]pyrrole-1(2H)-carboxamide] | 100 to 1000 nM
N#CN1C[C@H]2CCN(C(=O)Nc3ccc(OC(F)(F)F)cc3F)[C@H]2C1 [Example 197, (3aR,6aR)-5-cyano-N-(2-fluoro-4-(trifluoromethoxy)phenyl)hexahydropyrrolo[3,4-b]pyrrole-1(2H)-carboxamide] | < 100 nM
N#Cc1cc(F)c(NC(=O)N2CC[C@@H]3CN(C#N)C[C@@H]32)cc1F [Example 199, (3aR,6aR)-5-cyano-N-(4-cyano-2,5-difluorophenyl)hexahydropyrrolo[3,4-b]pyrrole-1(2H)-carboxamide] | 100 to 1000 nM
N#CN1C[C@H]2CCN(C(=O)Nc3cc(C(F)(F)F)ccc3F)[C@H]2C1 [Example 201, (3aR,6aR)-5-cyano-N-(2-fluoro-5-(trifluoromethyl)phenyl)hexahydro-pyrrolo[3,4-b]pyrrole-1(2H)-carboxamide] | < 100 nM
N#CN1C[C@H]2CCN(C(=O)Nc3ccc(-c4ccccc4)cn3)[C@H]2C1 [Example 202, (3aR,6aR)-5-cyano-N-(5-phenyl-pyridin-2-yl)hexahydropyrrolo[3,4-b]pyrrole-1(2H)-carboxamide] | < 100 nM
COCCN(C(=O)Nc1ccc(C(F)(F)F)cc1)C1CCN(C#N)C1 (stereo not shown) [Example 205, 1-(1-cyanopyrrolidin-3-yl)-1-(2-methoxyethyl)-3-(4-(trifluoromethyl)phenyl)urea] | 100 to 1000 nM
CCN(C(=O)c1ccc(-c2cnn(C)c2)c(F)c1)[C@@H]1CCN(C#N)C1 [Example 206, (R)-N-(1-cyanopyrrolidin-3-yl)-N-ethyl-3-fluoro-4-(1-methyl-1H-pyrazol-4-yl)benzamide] | 100 to 1000 nM
N#CN1CC[C@@H](N2CCN(c3cccc(N4CCOCC4)c3)C2=O)C1 [Example 210, (R)-3-(3-(3-morpholinophenyl)-2-oxoimidazolidin-1-yl)pyrrolidine-1-carbonitrile] | 100 to 1000 nM
N#CN1CC[C@@H](NC(=O)c2ccc3c(c2)OCCN3c2nccc(C3CC3)n2)C1 [Example 212, (R)-N-(1-cyanopyrrolidin-3-yl)-4-(4-cyclopropylpyrimidin-2-yl)-3,4-dihydro-2H-benzo[b][1, 4]oxazine-7-carboxamide] | < 100 nM

The remaining lines, values ahead:

IC50 | SMILES
100 to 1000 nM | CCN(C(=O)c1cnc2cc(-c3ccnc(C)c3)ccn12)[C@@H]1CCN(C#N)C1 [Example 165, (R)-N-(1-cyanopyrrolidin-3-yl)-N-ethyl-7-(2-methylpyridin-4-yl)imidazo[1,2-a]pyridine-3-carboxamide]
100 to 1000 nM | N#CN1CC[C@@H](NC(=O)c2cnc3cc(N4CCOCC4)ccn23)C1 [Example 166, (R)-N-(1-cyanopyrrolidin-3-yl)-7-morpholinoimidazo[1,2-a]pyridine-3-carboxamide]
< 100 nM | N#Cc1cccc(-c2ccc3nc(C(=O)N[C@@H]4CCN(C#N)C4)c(F)n3c2)c1 [Example 167, (R)-6-(3-cyanophenyl)-N-(1-cyanopyrrolidin-3-yl)-3-fluoroimidazo[1,2-a]pyridine-2-carboxamide]
100 to 1000 nM | Cc1nn(C)cc1-c1ccc(C(=O)N[C@@H]2CCN(C#N)C2)nc1 [Example 179, (R)-N-(1-cyanopyrrolidin-3-yl)-5-(1,3-dimethyl-1H-pyrazol-4-yl)picolinamide]
100 to 1000 nM | Cc1nc(-c2ccc(C(=O)N[C@@H]3CCN(C#N)C3)nc2)cc(C(F)(F)F)n1 [Example 180, (R)-N-(1-cyanopyrrolidin-3-yl)-5-(2-methyl-6-(trifluoromethyl)pyrimidin-4-yl)picolinamide]
< 100 nM | Cc1cc(-c2ccc(C(=O)N[C@@H]3CCN(C#N)C3)c(F)c2)nc(C)n1 [Example 181, (R)-N-(1-cyanopyrrolidin-3-yl)-4-(2,6-dimethylpyrimidin-4-yl)-2-fluorobenzamide]
100 to 1000 nM | N#CN1CC[C@@H](NC(=O)c2ncc(-c3ccc4nccn4c3)cc2F)C1 [Example 187, (R)-N-(1-cyanopyrrolidin-3-yl)-3-fluoro-5-(imidazo[1,2-a]pyridin-6-yl)picolinamide]
100 to 1000 nM | CN(C(=O)N1CC(c2ccccc2)C1)[C@@H]1CCN(C#N)C1 [Example 189, (R)-N-(1-cyanopyrrolidin-3-yl)-N-methyl-3-phenylazetidine-1-carboxamide]
< 100 nM | COc1ccc(C2CN(C(=O)N[C@@H]3CCN(C#N)C3)C2)cc1 [Example 190, (R)-N-(1-cyanopyrrolidin-3-yl)-3-(4-methoxyphenyl)azetidine-1-carboxamide]
< 100 nM | N#CN1CC[C@@H](NC(=O)N2CC(c3ccc(Cl)cc3)C2)C1 [Example 191, (R)-3-(4-chlorophenyl)-N-(1-cyanopyrrolidin-3-yl)azetidine-1-carboxamide]
< 100 nM | N#CN1CC[C@@H](NC(=O)N2CC(c3cccc(Cl)c3)C2)C1 [Example 192, (R)-3-(3-chlorophenyl)-N-(1-cyanopyrrolidin-3-yl)azetidine-1-carboxamide]
100 to 1000 nM | CN(C(=O)Nc1ccc(C(F)(F)F)cc1)[C@@H]1CCN(C#N)C1 [Example 195, (R)-1-(1-cyanopyrrolidin-3-yl)-1-methyl-3-(4-(trifluoromethyl)phenyl)urea]
< 100 nM | N#CN1C[C@H]2CCN(C(=O)Nc3ccc(C(F)(F)F)cc3)[C@H]2C1 [Example 203, (3aR,6aR)-5-cyano-N-(4-(trifluoromethyl)-phenyl)-hexahydropyrrolo[3,4-b]pyrrole-1(2H)-carboxamide]
< 100 nM | CCN(C(=O)Nc1ccc(C(F)(F)F)cc1)[C@@H]1CCN(C#N)C1 [Example 204, (R)-1-(1-cyanopyrrolidin-3-yl)-1-ethyl-3-(4-(trifluoromethyl)phenyl)urea]
100 to 1000 nM | CCN(C(=O)N1CC(c2ccccc2)C1)[C@@H]1CCN(C#N)C1 [Example 207, (R)-N-(1-cyanopyrrolidin-3-yl)-N-ethyl-3-phenylazetidine-1-carboxamide]
100 to 1000 nM | N#CN1CC[C@@H](N2CCN(c3nc(-c4ccccc4)cs3)C2=O)C1 [Example 208, (R)-3-(2-oxo-3-(4-phenylthiazol-2-yl)imidazolidin-1-yl)pyrrolidine-1-carbonitrile]
100 to 1000 nM | N#CN1CC[C@@H](N2CCCN(c3nc(-c4ccccc4)cs3)C2=O)C1 [Example 209, (R)-3-(2-oxo-3-(4-phenylthiazol-2-yl)tetrahydropyrimidin-1(2 H)-yl)pyrrolidine-1-carbonitrile]
100 to 1000 nM | N#CN1CC[C@@H](NC(=O)c2ccc3c(c2)OCCN3c2ncccn2)C1 [Example 211, (R)-N-(1-cyanopyrrolidin-3-yl)-4-(pyrimidin-2-yl)-3,4-dihydro-2H-benzo[b][1, 4]oxazine-7-carboxamide]
< 100 nM | N#CN1CC[C@@H](NC(=O)c2ccc(Nc3nccc(C4CC4)n3)c(F)c2)C1 [Example 213, (R)-N-(1-cyanopyrrolidin-3-yl)-4-((4-cyclopropylpyrimidin-2-yl)amino)-3-fluorobenzamide]
